Measurements published in patent US20140066498A1, “TRITERPENOID DERIVATIVES, BENZENOID DERIVATIVES, AND PHARMACEUTICAL COMPOSITIONS CONTAINING THE SAME” (National Cheng Kung University, priority 2010, published 2014).
Like-named read-outs stand apart in the source and are kept apart here.

What was measured:
KB (human cancer cell) = assay: Cytotoxicity assay against KB cells in vitro; type: cell-based; settings: NA@20 given for inactive
[1] = system: KB-VIN (multidrug-resistant strain); assay: Cytotoxicity assay against KB-VIN cells in vitro; type: cell-based, human
[2] = target: T1, nitric oxide synthase (NOS) (Mus musculus, UniProt P29477); assay: NOS activity: LPS-induced NO production in murine microglial cells (BV2)
T1 sequence (P29477 1-1144): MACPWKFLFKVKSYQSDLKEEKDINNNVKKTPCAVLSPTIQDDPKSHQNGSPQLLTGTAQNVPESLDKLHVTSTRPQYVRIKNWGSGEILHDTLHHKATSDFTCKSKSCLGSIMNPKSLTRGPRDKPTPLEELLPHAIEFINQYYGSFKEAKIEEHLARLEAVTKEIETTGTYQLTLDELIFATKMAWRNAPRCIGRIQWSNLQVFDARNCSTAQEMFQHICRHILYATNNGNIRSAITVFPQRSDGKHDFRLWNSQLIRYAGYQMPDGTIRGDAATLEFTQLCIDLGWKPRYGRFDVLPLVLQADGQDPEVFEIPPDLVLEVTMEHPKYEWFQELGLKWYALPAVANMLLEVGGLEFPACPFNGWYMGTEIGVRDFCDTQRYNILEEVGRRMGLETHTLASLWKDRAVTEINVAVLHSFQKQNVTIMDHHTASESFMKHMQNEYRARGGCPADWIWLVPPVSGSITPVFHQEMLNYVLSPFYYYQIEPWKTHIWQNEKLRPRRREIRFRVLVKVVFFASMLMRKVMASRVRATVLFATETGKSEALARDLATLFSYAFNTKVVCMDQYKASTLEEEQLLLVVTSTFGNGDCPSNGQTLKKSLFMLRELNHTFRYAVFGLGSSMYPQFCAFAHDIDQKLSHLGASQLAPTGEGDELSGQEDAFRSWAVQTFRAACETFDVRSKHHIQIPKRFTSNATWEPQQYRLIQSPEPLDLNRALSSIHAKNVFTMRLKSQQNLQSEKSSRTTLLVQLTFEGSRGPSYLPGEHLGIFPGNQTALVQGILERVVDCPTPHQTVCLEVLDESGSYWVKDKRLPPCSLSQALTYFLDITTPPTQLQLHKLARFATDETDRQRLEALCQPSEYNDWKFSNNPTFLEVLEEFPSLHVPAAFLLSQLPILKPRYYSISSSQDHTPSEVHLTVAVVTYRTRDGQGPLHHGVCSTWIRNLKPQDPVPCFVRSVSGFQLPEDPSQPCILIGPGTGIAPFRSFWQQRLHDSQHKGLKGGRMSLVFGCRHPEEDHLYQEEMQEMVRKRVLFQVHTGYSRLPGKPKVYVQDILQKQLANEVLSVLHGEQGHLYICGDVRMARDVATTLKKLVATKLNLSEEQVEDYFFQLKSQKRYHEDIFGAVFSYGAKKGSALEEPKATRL
Protocol: Microglial cell culture and measurements of mitric oxide (NO). The murine microglial cell line (BV2) was cultured, and the production of NO was measured by the methods as previously described (Wang, Y. H.; Wang, W. Y.; Chang, C. C.; Liou, K. T.; Sung, Y. J.; Liao, J. F.; Chen, C. F.; Chang, S.; Hou, Y. C.; Chou, Y. C.; Shen, Y. C. J. Biomed. Sci. 2006, 13, 127-141).

NADPH oxidase (NOX) [3] = target: NADPH oxidase (NOX) (Homo sapiens, UniProt P04839); type: cell-based; settings: ROS production triggered with fMLP (2 μM), 1-50 μM test drug, peripheral human neutrophils; mean ± S.E.M.; read-out: IC50 (μM) in NOX fMLP-induced NOX activation in PMN
NADPH oxidase (NOX) [4] = target: NADPH oxidase (NOX) (Mus musculus, UniProt Q61093); type: biochemical, murine; settings: ROS production triggered with NADPH (200 μM), 1-50 μM test drug, BV2 cell lysate; mean ± S.E.M., 3-6 experiments; read-out: IC50 (μM) in NOX activity from BV2 cell lysate
[5] = read-out: IC50 (μM) in NOS, LPS-induced NO production in BV2 cells, 1-50 μM test drug, mean ± S.E.M.

Compound: C[C@H](C=C[C@H](C)[C@H](C)CO)[C@H]1CC[C@H]2C3=CCC4CC(=O)CC[C@]4(C)[C@H]3CC[C@]12C (stereo partly drawn) [Compound I-9, (25S)-26-hydroxy-ergosta-7,22-dien-3-one]
- EC50 (μM) KB (KB (human cancer cell)): NA@20
- EC50 (μM) KB-VIN [1]: NA@20
- melting point: 192 to 193 °C
- IC50 [2]: 12.7 ± 2.2 µM

Compound: C=C(CC[C@@H](C)[C@H]1CC[C@H]2C3=C(C(=O)C[C@]12C)[C@@]1(C)CCC(=O)[C@@H](C)C1CC3)C(C)C(=O)OC (stereo partly drawn) [Compound I-21, methyl 4α-methylergost-8,24(28)-dien-3,11-dion-26-oate]
- IC50 [2]: 1.5 µM

Compound: C=C(CC[C@@H](C)C1CCC2C3=C(C(=O)C[C@@]21C)[C@@]1(C)CCC(=O)[C@@H](C)C1CC3O)C(C)C(=O)O (stereo in doubt) [Compound I-7, 7α-hydroxy-3,11-dioxo-4α-methylergosta-8,24(28)-dien-26-oic acid]
- EC50 (KB (human cancer cell); Homo sapiens): 15 µM
- EC50 ([1]; Homo sapiens, KBVIN): 17.5 µM

Compound: COc1cc(C)c(OC)c2c1OCO2 [II-8, 4,7-dimethoxy-5-methyl-1,3-benzodioxole]
- IC50 [2, 5]: 29.1 ± 4.4 µM

Compound: C=C(CC[C@@H](C)[C@H]1CC[C@H]2C3=C(C(=O)C[C@]12C)[C@@]1(C)CCC(=O)[C@@H](C)C1CC3)C(C)C (stereo partly drawn) [Compound I-8, 4α-methylergosta-8,24(28)-dien-3,11-dione]
- EC50 (μM) KB (KB (human cancer cell)): NA@20
- EC50 (μM) KB-VIN [1]: NA@20

Compound: C=C(CC[C@@H](C)C1CCC2C3=C(C(=O)C[C@@]21C)[C@@]1(C)CC[C@@H](O)[C@](C)(O)C1CC3=O)C(C)C(=O)O (stereo partly drawn) [Compound I-3, 3α,4β-dihydroxy-7,11-dioxo-4α-methylergosta-8,24(28)-dien-26-oic acid]
- EC50 (KB (human cancer cell); Homo sapiens): 0.3 µM
- EC50 ([1]; Homo sapiens, KBVIN): 2.3 µM
- melting point: 186 to 188 °C

Compound: C=C(CC[C@@H](C)[C@H]1CC[C@H]2C3=C(C(=O)C[C@]12C)[C@@]1(C)CCC(=O)[C@@H](C)[C@@H]1CC3=O)C(C)C(=O)OC (stereo partly shown) [Compound I-14, zhankuic acid A methyl ester]
- EC50 (KB (human cancer cell)): > 20 µM
- EC50 [1]: > 20 µM
- IC50 (NADPH oxidase (NOX) [3]): 8.4 ± 2.1 µM
- IC50 [2, 5]: 0.6 µM

Compound: c1ccc2c(c1)[I+]c1ccccc1-2 [DPI, Diphenyleneiodonium, reference compound]
- IC50 (NADPH oxidase (NOX) [4]): 0.4 µM

Compound: CC(C)[C@@H](C)/C=C/[C@@H](C)[C@H]1CC[C@H]2C3=CC[C@H]4C[C@@H](O)CC[C@]4(C)C3=CC[C@]12C [Compound I-20, ergosterol D]
- IC50 (NADPH oxidase (NOX) [3]): 27.9 ± 5.6 µM
- IC50 [2, 5]: 30.6 ± 0.8 µM

Compound: C=C(CC[C@@H](C)[C@H]1CC[C@H]2C3=C(C(=O)C[C@]12C)[C@@]1(C)CC[C@@H](O)[C@@H](C)[C@@H]1CC3=O)C(C)C(=O)O (stereo partly shown) [Compound I-12, zhankuic acid B]
- EC50 (KB (human cancer cell)): 7.3 µM
- EC50 [1]: 8.5 µM
- IC50 [2, 5]: 9.6 ± 0.7 µM

Compound: C=C(CC[C@@H](C)C1CCC2C3=C(C(=O)[C@H](O)[C@@]21C)[C@@]1(C)CC[C@@H](O)[C@@H](C)C1C[C@H]3O)C(C)C(=O)O (stereo partly drawn) [Compound I-1, 3α,7β,11α-trihydroxy-11-oxo-4α-methylergosta-8,24(28)-dien-26-oic acid]
- EC50 (μM) KB (KB (human cancer cell)): NA@20
- EC50 (μM) KB-VIN [1]: NA@20
- melting point: 117 to 119 °C

Compound: C=C(CC[C@@H](C)C1CCC2C3=C(C(=O)C[C@@]21C)[C@@]1(C)CCC(O)[C@@H](C)C1CC3O)C(C)C(=O)O (stereo in doubt) [Compound I-2, 3α,7β-dihydroxy-11-oxo-4α-methylergosta-8,24(28)-dien-26-oic acid]
- EC50 (μM) KB-VIN [1]: NA@20
- IC50 [2]: 15.7 ± 0.9 µM
